Each structure is given as a SMILES string.

The text below walks through data of patent publication US7199159B2, “Use of biguanide derivatives for making a medicine having a wound healing effect” (Centre National de la Recherche Scientifique (C.N.R.S.), priority 2000, dated 2007).

The assay has as its system skin wounds reproducing ulceration. Description: cicatrization of punch skin wounds (pseudo-ulcer) treated daily with metformin ointment. It counts as in vivo, Zucker fa/fa rats. As for the experimental part: The efficacy of metformin was tested in vivo on skin wounds reproducing ulceration. The pseudo-ulcer was produced on 14-week-old Zucker fa/fa rats by loss of matter of circular shape 8 mm in diameter made by a “punch”, down to the muscle layer. […] The speed of the cicatrization was evaluated by determining the area of the wounds with a video camera coupled to a computer equipped with image analysis software.
Furthermore, metformin at a concentration of 1% by weight relative to the lipophilic phase also appears to exert an effect on neovascularizaton.
The results of the microscopic analysis of histological sections of the wounds are collated in Table 1 below.

As for `CN(C)C(=N)N=C(N)N` [metformin], the “collagen density in granulation tissue” value (FIG. 3, D4) is “increase in the collagen density”. Further, the “cicatrization (area of the wounds by image analysis)” value (daily treatment, ointment at different metformin concentrations) was “significant improvement in cicatrization”. Further, where the note is “different metformin concentrations”, the “epidermization compared with untreated control animals” value was “acceleration of epidermization”. Further, for the setting “four metformin concentrations, FIG. 2”, the “closure of the treated wounds vs untreated control wounds” value is given as “closure of the treated wounds is faster than of the untreated control wounds”. The “neovascularization (density of blood capillaries on the edges of the wound)” value (metformin 1%, D5, treated vs control rats) is reported as “greater density of blood capillaries on the edges of the wound”. Besides, the “cicatrizing action, dose-response study” value (ointment with metformin at 0.02%, 0.1%, and 2%) is recorded as “cicatrizing action for all the concentrations tested”. Where the note is “rat, in vivo”, the “speed of maturation of granulation tissue” value is “significantly increases the speed of maturation of granulation tissue”.
